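GI50 = concentration required for 50% inhibition of growth. TGI: total growth inhibition.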
Experiments:
Experiment in all cases: DTP human tumour cell line panel, 384-well format
786-0 renal = tested on: 786-0 renal
A498 renal = tested on: A498 renal
A549 NSCLC = tested on: A549 NSCLC
ACHN renal = tested on: ACHN renal
BT-549 breast = tested on: BT-549 breast
CAKI-1 renal = tested on: CAKI-1 renal
CCRF-CEM leukemia = tested on: CCRF-CEM leukemia
DU-145 prostate = tested on: DU-145 prostate
EKVX NSCLC = tested on: EKVX NSCLC
HCT-116 colon = tested on: HCT-116 colon
HCT-15 colon = tested on: HCT-15 colon
HL-60(TB) leukemia = tested on: HL-60(TB) leukemia
HOP-62 NSCLC = tested on: HOP-62 NSCLC
HOP-92 NSCLC = tested on: HOP-92 NSCLC
HS 578T breast = tested on: HS 578T breast
HT29 colon = tested on: HT29 colon
IGROV1 ovarian = tested on: IGROV1 ovarian
K-562 leukemia = tested on: K-562 leukemia
KM12 colon = tested on: KM12 colon
M14 melanoma = tested on: M14 melanoma
MALME-3M melanoma = tested on: MALME-3M melanoma
MCF7 breast = tested on: MCF7 breast
MDA-MB-231 breast = tested on: MDA-MB-231 breast
MDA-MB-435 melanoma = tested on: MDA-MB-435 melanoma
MDA-MB-468 breast = tested on: MDA-MB-468 breast
NCI-H226 lung = tested on: NCI-H226 lung
NCI-H23 lung = tested on: NCI-H23 lung
NCI-H322M lung = tested on: NCI-H322M lung
NCI-H522 lung = tested on: NCI-H522 lung
NCI/ADR-RES ovarian = tested on: NCI/ADR-RES ovarian
OVCAR-3 ovarian = tested on: OVCAR-3 ovarian
OVCAR-4 ovarian = tested on: OVCAR-4 ovarian
OVCAR-5 ovarian = tested on: OVCAR-5 ovarian
OVCAR-8 ovarian = tested on: OVCAR-8 ovarian
PC-3 prostate = tested on: PC-3 prostate
RPMI-8226 leukemia = tested on: RPMI-8226 leukemia
SF-268 CNS = tested on: SF-268 CNS
SF-295 CNS = tested on: SF-295 CNS
SF-539 CNS = tested on: SF-539 CNS
SK-MEL-2 melanoma = tested on: SK-MEL-2 melanoma
SK-MEL-28 melanoma = tested on: SK-MEL-28 melanoma
SK-OV-3 ovarian = tested on: SK-OV-3 ovarian
SN12C renal = tested on: SN12C renal
SNB-19 CNS = tested on: SNB-19 CNS
SNB-75 CNS = tested on: SNB-75 CNS
SW-620 colon = tested on: SW-620 colon
T-47D breast = tested on: T-47D breast
TK-10 renal = tested on: TK-10 renal
U251 glioblastoma = tested on: U251 glioblastoma
UACC-257 melanoma = tested on: UACC-257 melanoma
UACC-62 melanoma = tested on: UACC-62 melanoma
UO-31 renal = tested on: UO-31 renal

CC[C@]1(O)C[C@H]2CN(CCc3c([nH]c4ccccc34)[C@@](C(=O)OC)(c3cc4c(cc3OC)N(C)[C@H]3[C@@](O)(C(=O)OC)[C@H](OC(C)=O)[C@]5(CC)C=CCN6CC[C@]43[C@@H]65)C2)C1
GI50 ([…]-0 renal): < 19.1 nM
TGI (786-0 renal): 4130 nM
GI50 (A498 renal): < 19.9 nM
GI50 (A549 NSCLC): < 21.2 nM
TGI (A549 NSCLC): 14100 nM
TGI (ACHN renal): 6080 nM
GI50 (BT-549 breast): < 16.2 nM
TGI (BT-549 breast): 42.6 nM
GI50 (CAKI-1 renal): < 22.6 nM
TGI (CAKI-1 renal): 3880 nM
GI50 (CCRF-CEM leukemia): < 13.6 nM
TGI (CCRF-CEM leukemia): < 18.2 nM
GI50 (DU-145 prostate): < 18.7 nM
GI50 (EKVX NSCLC): 30.4 nM
TGI (EKVX NSCLC): 11900 nM
GI50 (HCT-116 colon): < 17.8 nM
TGI (HCT-116 colon): 595 nM
GI50 (HCT-15 colon): 52 nM
TGI (HCT-15 colon): 10400 nM
TGI (HL-60(TB) leukemia): < 11.1 nM
GI50 (HOP-62 NSCLC): < 17.5 nM
TGI (HOP-62 NSCLC): 1250 nM
GI50 (HOP-92 NSCLC): 66.4 nM
TGI (HOP-92 NSCLC): 8390 nM
GI50 (HS 578T breast): < 13.6 nM
TGI (HS 578T breast): < 20.8 nM
GI50 (HT29 colon): 31.5 nM
TGI (HT29 colon): 10700 nM
GI50 (IGROV1 ovarian): < 39 nM
TGI (IGROV1 ovarian): 4400 nM
TGI (K-562 leukemia): < 18.8 nM
GI50 (KM12 colon): 33.1 nM
TGI (KM12 colon): 13800 nM
GI50 (M14 melanoma): 22.7 nM
TGI (M14 melanoma): 13200 nM
GI50 (MALME-3M melanoma): < 23.8 nM
TGI (MALME-3M melanoma): 16400 nM
GI50 (MCF7 breast): < 19.1 nM
TGI (MCF7 breast): 3170 nM
GI50 (MDA-MB-231 breast): < 20.5 nM
TGI (MDA-MB-231 breast): 8400 nM
GI50 (MDA-MB-435 melanoma): < 13.7 nM
TGI (MDA-MB-435 melanoma): < 21.1 nM
GI50 (MDA-MB-468 breast): < 14.9 nM
TGI (MDA-MB-468 breast): < 20.7 nM
GI50 (NCI-H226 lung): < 26.3 nM
TGI (NCI-H226 lung): 13000 nM
GI50 (NCI-H23 lung): 25.8 nM
TGI (NCI-H23 lung): 79.6 nM
GI50 (NCI-H322M lung): < 24.5 nM
TGI (NCI-H322M lung): 20300 nM
GI50 (NCI-H522 lung): < 14.1 nM
TGI (NCI-H522 lung): < 19.6 nM
GI50 (NCI/ADR-RES ovarian): 454 nM
TGI (NCI/ADR-RES ovarian): 1020 nM
GI50 (OVCAR-3 ovarian): < 15.1 nM
TGI (OVCAR-3 ovarian): < 26.5 nM
GI50 (OVCAR-4 ovarian): 357 nM
TGI (OVCAR-4 ovarian): 14700 nM
GI50 (OVCAR-5 ovarian): < 21.1 nM
TGI (OVCAR-5 ovarian): 16800 nM
GI50 (OVCAR-8 ovarian): < 16.4 nM
TGI (OVCAR-8 ovarian): < 28.4 nM
GI50 (PC-3 prostate): < 19.5 nM
TGI (PC-3 prostate): 11800 nM
GI50 (RPMI-8226 leukemia): < 11.6 nM
TGI (RPMI-8226 leukemia): < 16.8 nM
GI50 (SF-268 CNS): < 20.3 nM
TGI (SF-268 CNS): 4860 nM
GI50 (SF-295 CNS): < 14.8 nM
TGI (SF-295 CNS): < 22.6 nM
GI50 (SF-539 CNS): < 14.3 nM
TGI (SF-539 CNS): < 21.5 nM
GI50 (SK-MEL-2 melanoma): < 16.2 nM
TGI (SK-MEL-2 melanoma): < 25.4 nM
GI50 (SK-MEL-28 melanoma): < 39 nM
TGI (SK-MEL-28 melanoma): 14600 nM
GI50 (SK-OV-3 ovarian): < 20.6 nM
TGI (SK-OV-3 ovarian): 904 nM
GI50 (SN12C renal): < 25 nM
TGI (SN12C renal): 14700 nM
GI50 (SNB-19 CNS): < 21.6 nM
TGI (SNB-19 CNS): 2300 nM
GI50 (SNB-75 CNS): < 20.6 nM
GI50 (SW-620 colon): < 20.2 nM
TGI (SW-620 colon): 16300 nM
GI50 (T-47D breast): 544 nM
TGI (T-47D breast): 19900 nM
GI50 (TK-10 renal): < 26.9 nM
TGI (TK-10 renal): 14600 nM
GI50 (U251 glioblastoma): < 17.7 nM
GI50 (UACC-257 melanoma): 412 nM
TGI (UACC-257 melanoma): 10600 nM
GI50 (UACC-62 melanoma): < 17.1 nM
GI50 (UO-31 renal): 157 nM
TGI (UO-31 renal): 7780 nM

Source: PubChem BioAssay (NCI)
